Experiments:
[1] = Antioxidant activity (AOA) of plasma from AAPH-treated rats, against BHP; assay type: in vivo, Sprague-Dawley rats; details: for Plasma antioxidant activity against BHP: ascorbic acid 500 mg/kg p.o., SOD 50 mg/kg s.c., mean ± SEM, n=8
Method: (§1) To examine the effects of EF effect during oxidative stress, rats were divided into five groups (n=8) as follows: 1) non-treatment; 2) treatment with the oxidizing agent, AAPH, on experimental day seven; 3) co-treatment with EF and AAPH; 4) co-treatment with AAPH and the anti-oxidant agent, ascorbic acid; or 5) co-treatment with AAPH and superoxide dismutase. Rats of Group 3 were exposed to a sine wave of 50 Hz, 17,500 V/m intensity, 15 minutes per day for one week. In addition, Groups 1, 2, 4 and 5 were sham EF exposed, in which were maintained for an equal period of time inside the exposure cage with the system turned off. On the seventh day after EF was started, Group 3 was exposed to EF just after administration of AAPH (10 mg/kg, i.p.). In Group 4, ascorbic acid (500 mg/kg, p.o.) was administered 60 minutes before of the AAPH treatment. Superoxide dismutase (50 mg/kg, s.c., Nacalai Tesque, Tokyo, Japan) was administered to Group 5 just before the AAPH treatment. Under pentobarbital (45 mg/kg, i.p.) anesthesia, blood was collected from the abdominal cava vein 90 minutes later after AAPH administration, and the plasma was separated by centrifugation at 1,670×g for 10 minutes at 4° C. The plasma samples were stored at −80° C. until tested.
(§2) Plasma AOA was measured by a method using a derivative of methylene blue. Briefly, 0.1 ml plasma or a solution of ascorbic acid (Wako Ltd., Osaka, Japan) and 0.65 ml distilled water was added into 1.5 ml of Good's buffer adjusted to pH 5.8 (Good et al., 1966), including 1% triton X-100 supplemented with 3,7-bis-demethylamino-10-methyl carbamoyl phenothiazine (MCDP, 40 μM, KYOWA MEDEX Co., Ltd., Tokyo, Japan) and hemoglobin (67.5 μg/ml). After incubation for one minute at 37° C., 0.25 ml of tert-butylhydroperoxide (84 μM, BHP, Aldrich) as an alkoxyl radical initiator was added and reacted for 10 minutes at 37° C. In addition, AOA measurements in a reaction using AAPH (50 mM) as a peroxy radical initiator were conducted in Good's buffer without hemoglobin for 20 minutes at 37° C. A radical initiator not trapped by an antioxidant in each plasma sample will oxidize MCDP. The absorbance of the resultant blue color was subsequently measured by absorbance at 675 nm using a spectrophotometer (150-20, Hitachi). The equation to calculate AOA was the following: AOA (%)=(1−Abs1/Abs2)×100, where Abs1 is the absorbance of the plasma sample, and Abs2 is a value of the blank.

[2] = Antioxidant activity (AOA) of plasma from AAPH-treated rats, against AAPH; assay type: in vivo, Sprague-Dawley rats; details: for AOAAAPH: ascorbic acid 500 mg/kg p.o., SOD 50 mg/kg s.c., mean ± SEM, n=8
Method: as §1, §2

AAPH-treated rats = assay: Plasma lipid peroxide (TBARS) levels in AAPH-treated rats; assay type: in vivo, Sprague-Dawley rats; details: for Plasma levels of lipid peroxide compared to the sham EF-exposed group: AAPH-treated rats, P<0.05 (ascorbic acid), P<0.01 (superoxide dismutase); for Malondialdehyde concentration: plasma lipid peroxide, AAPH 10 mg/kg i.p., ascorbic acid 500 mg/kg p.o., SOD 50 mg/kg s.c., mean ± SEM, n=8
Method: as §1
Thiobarbituric acid reactive substance (TBARS), as an indicator of the plasma concentration of lipid peroxide, was measured using a commercialized kit (Lipid peroxide-test Wako, Wako Ltd., Osaka, Japan).

[3] = Antioxidant activity (AOA) of rat plasma, ascorbic acid added in the test tube, AAPH as radical initiator; assay type: biochemical, Sprague-Dawley rats
Method: (§3) To examine the effects of EF on unstressed rats, rats were exposed to a sine wave of 50 Hz, 17,500 V/m intensity, 15 minutes per day for 1 one week. Each rat in three groups (n=5) was individually treated with an EF or a sham EF, or was not treated. Rats exposed to sham EF were maintained for an equal period of time inside the exposure cage with the system turned off. Under pentobarbital (45 mg/kg, i.p.) anesthesia, blood was collected from the abdominal cava vein after EF exposure on experimental day seven, and the plasma was separated by centrifugation at 1,670×g for 10 minutes at 4° C. The plasma samples were stored at −80° C. until tested.
(§4) Plasma AOA was measured by a method using a derivative of methylene blue. Briefly, 0.1 ml plasma or a solution of ascorbic acid (Wako Ltd., Osaka, Japan) and 0.65 ml distilled water was added into 1.5 ml of Good's buffer adjusted to pH 5.8 (Good et al., 1966), including 1% triton X-100 supplemented with 3,7-bis-demethylamino-10-methyl carbamoyl phenothiazine (MCDP, 40 μM, KYOWA MEDEX Co., Ltd., Tokyo, Japan) and hemoglobin (67.5 μg/ml). […] The absorbance of the resultant blue color was subsequently measured by absorbance at 675 nm using a spectrophotometer (150-20, Hitachi). The equation to calculate AOA was the following: AOA (%)=(1−Abs1/Abs2)×100, where Abs1 is the absorbance of the plasma sample, and Abs2 is a value of the blank.

[4] = Antioxidant activity (AOA) of rat plasma, ascorbic acid added in the test tube, BHP as radical initiator; assay type: biochemical, Sprague-Dawley rats
Method: as §3, §4

mouse splenocytes = assay: [Ca^2+]c-high cells in lectin-stimulated mouse splenocytes, fluo-3 flow cytometry; assay type: cell-based, BALB/c mice; details: 5 μg/ml PHA, 1 mM CaCl2; EF-exposed and unexposed cells
Method: In order to avoid contact of the cells and the lower electrode, polycarbonate membrane (Isopore, MILLIPORE, MA USA) was placed between the dish and the insert. Approximately 1 ml of the cell suspension was poured into culture well/space and covered with a lid.
Female BALB/c mice, 4-7 wk old obtained from CLEA Inc. (Tokyo, Japan) maintained in a conventional animal house equipped with clean air-filtering device were splenectomized under anesthesia, and cell suspensions of splenocytes were prepared. To examine cell viability, the cells were cultivated in Dulbecco's modified Eagle's medium (SIGMA, MO, USA) supplemented with 10% fetal bovine serum (FSB). The cells were maintained in Hank's balanced salt solution (HBSS) (SIGMA, MO, USA) during examination for [Ca^2+]c which was carried out within 4 hr after cell preparation. Cells were stored at 4 degree C. prior to use.
Splenocytes (10^6 cells/ml) were incubated for 20 min at 37 degrees C. in HBSS containing 2.5 μM fluo-3-acetoxylmethyl (Molecular Probes, USA) [Vandenberghe et al., 1990]. The cell suspension was then diluted 5 times with HBSS containing 1% FBS, incubated for 40 min at 37 degrees C., washed 3 times with assay buffer, and the cells were then suspended in the assay buffer at a concentration of 1×10^6/ml. Throughout the cell preparation, the cell suspensions were mixed gently.
Considering the reported synergistic interaction between EMF and mitogen (Walleczek and Liburdy, 1990), concanavalin-A (Con-A) (Seikagaku Co., Tokyo, Japan) and phytohemaglutinin (PHA) (SIGMA, MO, USA) were used.
Taking into account the results of the viability test for exposed murine splenocytes earlier assayed, we chose to use the optimum culture and exposure conditions (60 Hz, 6 μA/cm^2 EF) in carrying out the following five experiments: • (1) cells suspended in HEPES-buffered saline (BS)+1 mM CaCl2 were exposed to EF for a total of 40 min, and 12.5 μg/ml of Con-A was added after the first 8 min of exposure. The control groups consisted of EF-unexposed cells containing Con-A, and EF-exposed cells without Con-A. Percent [Ca^2+]c-high cells was checked at certain exposure points; • (2) cells in HEPES-BS+1 mM CaCl2 were exposed for a total of 12 min, and different concentrations (1 ng-12.5 μg/ml) of Con-A were added after the first 4 min of exposure. The control group was essentially the same as that of the experimental group but without EF-exposure; • (3) cells in HEPES-BS+1 mM CaCl2 were exposed for a total of 8 min, and 5 μg/ml of PHA was added after the first 4 min of exposure. The control groups consisted of EF-unexposed cells containing PHA, and EF-exposed cells without PHA; • (4) cells suspended in HEPES-BS without CaCl2 were exposed for a total of 12 min, and different concentrations (1 ng-5 μg/mil) of Con-A were added after the first 4 min of exposure. The control group was essentially the same as the experimental group but without EF exposure; and • (5) to evaluate the persistent effect of EF exposure, cells suspended in HEPES-BS+[…] were exposed for a total of 4 min, after which different concentrations (0.025-12.5 μg/ml) of Con-A were added, and the generation of [Ca^2+]c-high cells for the next 8 min without EF exposure was monitored with flow cytometry. The control was essentially the same as the experimental group but without any EF-exposure. Statistical Analysis

[5] = added to plasma of the non-treatment group, P<0.01
[6] = ascorbic acid 440 ng/ml added to plasma of non-treatment group, mean ± SEM, n=5

With CC(C)(N=NC(C)(C)C(=N)N)C(=N)N.Cl.Cl [AAPH, 2,2′-azobis(2-amidinopropane)dihydrochloride] the “Change in plasma AOA against BHP in rats treated with AAPH” value ([1]; AAPH 10 mg/kg i.p.) was “did not show any changes” and the “Change in plasma AOA against AAPH in rats treated with AAPH” value ([2]; AAPH 10 mg/kg i.p.) was “suppression”.

In the case of O=C1O[C@H]([C@@H](O)CO)C(O)=C1O [Ascorbic acid, ascorbic acid], the “Plasma levels of lipid peroxide compared to the sham EF-exposed group” value (AAPH-treated rats) is reported as “lower”, the Malondialdehyde concentration (AAPH-treated rats) is reported as 1.509 ± 0.05 nmol/mL and the “AOA against BHP compared to the other four groups” value ([1]; AAPH-treated rats, P<0.01) is reported as “increase”. The “Plasma antioxidant activity against BHP” value ([1]; AAPH-treated rats) was 87.5 ± 0.3 %, the “AOA of plasma against AAPH after addition of ascorbic acid” value [3, 5] was “significantly elevated” and the AOAAAPH [3, 6] was 62.0 ± 3.8 %. The “AOA of plasma against BHP after addition of ascorbic acid” value [4, 5] was “significantly elevated”, the AOABHP [4, 6] was 87.7 ± 0.3 % and the “Plasma AOA compared to the other four groups” value ([2]; AAPH-treated rats, P<0.01) was “significantly higher”. It also gave an AOAAAPH ([2]; AAPH-treated rats) of 46.3 ± 3.2 %.

With phytohemaglutinin [PHA] the “[Ca^2+]c-high cells” value (mouse splenocytes) was “significant increases”.

With superoxide dismutase [SOD] the “Plasma levels of lipid peroxide compared to the sham EF-exposed group” value (AAPH-treated rats) was “lower”, the Malondialdehyde concentration (AAPH-treated rats) was 1.139 ± 0.10 nmol/mL and the “Plasma antioxidant activity against BHP” value ([1]; AAPH-treated rats) was 78.0 ± 2.1%. The “Plasma AOA compared to the sham EF-exposed group” value ([2]; AAPH-treated rats) was “not different”, the “Plasma AOA compared to the non-treatment group” value ([2]; AAPH-treated rats, P<0.05) was “significantly suppressed” and the AOAAAPH ([2]; AAPH-treated rats) was 22.1 ± 2.5%.
